In patent US20040192905A1, “Polymerizable monomers and process of preparation thereof” (priority 2003, published 2004):

Columns and labels:
[1] = biological target: T1, lysozyme (Gallus gallus, UniProt P00698); assay: Estimation of binding constant (Kb) by fluorescence spectrophotometric method; conditions: relative to NAG
Experimental: Estimation of binding constant (Kb) of monomers containing NAG by fluorescence spectrophotometric method and the enhancement resulting from conjugation with monomers and monomer containing spacer.
Fluorescence spectra of lysozyme were recorded on a Perkin Elmer LS-50 B luminescence spectrophotometer. Excitation frequency was 285 nm, Solutions of lysozyme and N-Acetyl Glucosamine were prepared in 0.066 M phosphate buffer pH 6.2, containing 0.0154 M sodium chloride and 0.008 M sodium azide. 0 1 milliliter of lysozyme 80 μg/ml was mixed with solution containing different ligand concentration in a 2 ml capacity 10 mm square quartz cells maintained at 18 0 C.
Phosphate buffer was added to make the volume to 2 ml. The fluorescence intensities of the solutions were measured, relative to the solutions containing enzymes and buffer mixtures of the identical concentrations reference. […]

[2] = biological target: T1, lysozyme; assay: Estimation of relative inhibition of lysozyme (Micrococcus lysodeikticus substrate, absorbance at 450 nm); type: biochemical; conditions: for 1max: ligand concentration at Imax; for Imax: maximum relative inhibition of lysozyme; for IC50: phosphate buffer pH 6.2, 20 C, Micrococcus lysodeikticus substrate, read-out: I50
Experimental: This example describes the estimation of inhibition of lysozyme by monomers Micrococcus lysodeikticus is a substrate for the enzyme lysozyme. Relative binding of monomers and monomers linked to NAG through the spacer arm was estimated by using a procedure reported by Neuberger and Wilson (1967).
1 5% w/v stock solutions of monomeric ligands was prepared in […] phosphate buffer pH 6.2 containing 0.01 54 m sodium chloride and 0.008 M sodium azide. One milliliter of stock solution containing different ligand concentration was mixed with 1.6 ml of 78 Jig/ml of Micrococcus lysodeikticus in a 3-ml capacity glass cuvette. The mixture was incubated for 5 minutes at 20 0 C. To this mixture 0.1 ml of lysozyme (27 μg/ml) was added and mixed thoroughly. The relative absorbance at 450 nm (Δ450) was recorded for 30 seconds. A blank reading without the ligand was noted and the change in the absorbance per second was calculated. Then relative inhibition was calculated

T1 sequence (P00698 19-147): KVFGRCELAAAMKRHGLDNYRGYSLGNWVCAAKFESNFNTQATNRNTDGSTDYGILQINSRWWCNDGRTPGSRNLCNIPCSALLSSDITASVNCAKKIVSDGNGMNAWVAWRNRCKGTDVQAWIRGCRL

| increase in binding constant compared to N-Acetyl Glucosamine [1] [times] | 1max [2] [mM] | Imax [2] | IC50 [2] [mM] | Molecule |
| --- | --- | --- | --- | --- |
| 74 | 14.81 | 50.00 | 14.8 | C=CC(=O)OC[C@H]1OC(O)[C@H](NC(C)=O)[C@@H](O)[C@@H]1O (stereo partly shown) [Ac. NAG, Acryloyl N-Acetyl Glacosamine] |
|  | 92.5 | 55.29 | 74 | CC(=O)N[C@H]1C(O)O[C@H](CO)[C@@H](O)[C@@H]1O (stereo partly shown) [NAG, N-Acetyl Glucosamine, reference compound] |

| Molecule | increase in binding constant compared to N-Acetyl Glucosamine [1] [times] | 1max [2] [mM] | Imax [2] | IC50 [2] [mM] |
| --- | --- | --- | --- | --- |
| Acryloyl 6-Amino Caproic Acid N-Acetyl Glucosamine [Ac 6ACA.NAG] |  | 0.036 | 52.5 | 0.035 |
